Values quoted from earlier work as cited in article PMC8113538, “Acute toxicity analysis of an inhibitor of BCL2, Disarib, in rats” (Scientific Reports, 2021).
Like-named read-outs stand apart in the source and are kept apart here.

Key:
[1] = cited from earlier work
[2] = cited from earlier work; for solubility in organic solvents: DMSO and Dimethylformamide
[3] = rats; cited from earlier work
[4] = tested on: circulating platelets; parameters: method as in PMID 26589495, PMID 21094089, PMID 17205078; conditions: preclinical studies; cited from earlier work
[5] = parameters: method as in EMA Venclyxto public assessment report, 16; conditions: monkey; ref EMA Venclyxto public assessment report, 16; cited from earlier work
[6] = parameters: method as in EMA Venclyxto public assessment report, 16; conditions: dogs; ref EMA Venclyxto public assessment report, 16; cited from earlier work
[7] = tested on: platelets; parameters: method as in PMID 26589495; conditions: clinical trials; cited from earlier work

Row | Compound | oral bioavailability (in words) [1] | plasma clearance [1] | solubility in organic solvents [2] | solubility in absolute ethanol [2] | solubility in aqueous buffers [2] | bioavailability [3] | number of circulating platelets [4] | half life [5] [h] | half life [6] [h] | toxic effect on platelets [7]
1 | CC1(C)CCC(c2ccc(Cl)cc2)=C(CN2CCN(c3ccc(C(=O)NS(=O)(=O)c4ccc(N[C@H](CCN5CCOCC5)CSc5ccccc5)c(S(=O)(=O)C(F)(F)F)c4)cc3)CC2)C1 [ABT263] | orally bioavailable | low plasma clearance value | showed solubility in organic solvents such as DMSO and Dimethylformamide | soluble in absolute ethanol | minimal | ~ 20% | rapid and concentration-dependent decrease in the number of circulating platelets | – | – | –
2 | CC1(C)CCC(CN2CCN(c3ccc(C(=O)NS(=O)(=O)c4ccc(NCC5CCOCC5)c([N+](=O)[O-])c4)c(Oc4cnc5[nH]ccc5c4)c3)CC2)=C(c2ccc(Cl)cc2)C1 [ABT199] | orally bioavailable | – | showed solubility in organic solvents such as DMSO and Dimethylformamide | soluble in absolute ethanol | minimal | – | – | 2.2 | 12 | no toxic effect on platelets
3 | CN(C)CC[C@H](CSc1ccccc1)Nc1ccc(S(=O)(=O)NC(=O)c2ccc(N3CCN(Cc4ccccc4-c4ccc(Cl)cc4)CC3)cc2)cc1[N+](=O)[O-] [ABT737] | not orally bioavailable | low plasma clearance value | showed solubility in organic solvents such as DMSO and Dimethylformamide | – | minimal | – | rapid and concentration-dependent decrease in the number of circulating platelets | – | – | –
